Data taken from the supplement of paper PMC12317010.
Counter-ions that a name gives are not always drawn.

Assay: collision cross section in nitrogen (drift tube, single-field); higher = larger gas-phase ion size
[1] = ion type: [M+H], ion source: APCI, ion mode: Positive
[2] = ion type: [M+H], ion source: ESI, ion mode: Positive
[3] = ion type: [M+Na], ion source: ESI, ion mode: Positive
[4] = ion type: [M-H], ion source: ESI, ion mode: Negative
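Also: chemical standards at 10 µM analysed by drift tube IMS-QTOF MS in about 3.95 torr nitrogen, mean of duplicate injections differing ≤1%, mass error below 10 ppm.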

| SMILES | collision cross section in nitrogen [1] | collision cross section in nitrogen [2] | collision cross section in nitrogen [3] | collision cross section in nitrogen [4] | other results |
| --- | --- | --- | --- | --- | --- |
| CCOP(=S)(OCC)Oc1cc(C)nc(N(CC)CC)n1 [Pirimiphos-ethyl] | 176.3 Å² | 178.3 Å² | 181.5 Å² | – | – |
| CCN(CC)c1nc(C)cc(OP(=S)(OC)OC)n1 [Pirimiphos-methyl] | 165.5 Å² | 167.9 Å² | – | – | – |
| O=C(O)C[C@H](O)C[C@H](O)/C=C/c1c(C2CC2)nc2ccccc2c1-c1ccc(F)cc1 [Pitavastatin calcium] | 202.3 Å² | 203.2 Å² | 196.7 Å² | 207.8 Å² | – |
| CCCCCCCCC=CCCCCCCCC(=O)OCCO [Poly(oxyethylene) monoleate] | – | – | – | 186.1 Å² | – |
| O=S(=O)(O)c1cc(O)ccc1O [Potassium 2,5-dihydroxybenzenesulfonate] | – | – | – | 131.2 Å² | – |
| CCCCC(CC)C(=O)O (centres undefined) [Potassium 2-ethylhexanoate] | – | – | – | 137.8 Å² | – |
| CC(=O)CC(=O)Nc1ccc(S(=O)(=O)O)cc1 [Potassium 4-acetoacetylaminobenzenesulphonate] | – | – | – | 159.1 Å² | – |
| O=S(=O)(O)c1ccc2cc(O)ccc2c1 [Potassium 6-hydroxynaphthalene-2-sulfonate] | – | – | – | 148.2 Å² | – |
| O=C(O)CNc1ccccc1 [Potassium anilinoacetate] | – | – | – | 134.6 Å² | – |
| [O-][Cl+2]([O-])O [Potassium chlorate] | – | – | – | 104 Å² | – |
| I [Potassium iodide] | – | – | – | 92.6 Å² | – |
| O=[N+]([O-])O [Potassium nitrate] | – | – | – | 104.9 Å² | – |
| [O-][Cl+3]([O-])([O-])O [Potassium perchlorate] | – | – | – | 105.2 Å² | – |
| O=S(=O)(O)C(F)(F)C(F)(F)C(F)(F)C(F)(F)F [Potassium perfluorobutanesulfonate] | – | – | – | 134.2 Å² | – |
| O=S(=O)(O)C(F)(F)C(F)(F)C(F)(F)C(F)(F)C(F)(F)C(F)(F)F [Potassium perfluorohexanesulfonate] | – | – | – | 150.9 Å² | – |
| O=S(=O)(O)C(F)(F)C(F)(F)C(F)(F)C(F)(F)C(F)(F)C(F)(F)C(F)(F)C(F)(F)F [Potassium perfluorooctanesulfonate] | – | – | – | 169 Å² | – |
| C#CCC1=C(C)C(OC(=O)C2C(C=C(C)C)C2(C)C)CC1=O (centres undefined) [Prallethrin] | – | – | 182.8 Å² | – | – |
| CCCN[C@H]1CCc2nc(N)sc2C1 [Pramipexole dihydrochloride monohydrate] | 152.8 Å² | 152.6 Å² | – | – | – |
| CC[C@H](C)C(=O)O[C@H]1C[C@H](O)C=C2C=C[C@H](C)[C@H](CC[C@@H](O)C[C@@H](O)CC(=O)O)[C@H]21 [Pravastatin sodium] | – | – | 206.7 Å² | 201.5 Å² | – |
| O=C(C1CCCCC1)N1CC(=O)N2CCc3ccccc3C2C1 (centres undefined) [Praziquantel] | 178.5 Å² | 178.3 Å² | 185.4 Å² | – | – |
| C[C@]12C=CC(=O)C=C1CC[C@@H]1[C@@H]2[C@@H](O)C[C@@]2(C)[C@H]1CC[C@]2(O)C(=O)CO [Prednisolone] | 186.4 Å² | – | 210.8 Å² | – | – |
| C[C@]12C=CC(=O)C=C1CC[C@@H]1[C@@H]2C(=O)C[C@@]2(C)[C@H]1CC[C@]2(O)C(=O)CO [Prednisone] | 184.1 Å² | – | 192.2 Å² | – | – |
| CC(=O)[C@H]1[C@H](C#N)C[C@H]2[C@@H]3CC=C4C[C@@H](O)CC[C@]4(C)[C@H]3CC[C@@]21C [Pregnenolone carbonitrile] | – | – | – | 189.5 Å² | – |
| COC(=O)c1ccccc1S(=O)(=O)NC(=O)Nc1nc(OC(F)F)cc(OC(F)F)n1 [Primisulfuron-methyl] | – | – | 199.7 Å² | – | – |

| SMILES | collision cross section in nitrogen [1] | collision cross section in nitrogen [2] | collision cross section in nitrogen [3] | collision cross section in nitrogen [4] | other results |
| --- | --- | --- | --- | --- | --- |
| CCCN(CCC)S(=O)(=O)c1ccc(C(=O)O)cc1 [Probenecid] | – | – | – | 172.9 Å² | – |
| CCN(CC)CCOC(=O)c1ccc(N)cc1 [Procaine hydrochloride] | 155.9 Å² | 157.1 Å² | – | – | – |
| CC(C)(C#N)Nc1nc(Cl)nc(NC2CC2)n1 [Procyazine] | 159.4 Å² | 159 Å² | – | – | – |
| CC12CC1(C)C(=O)N(c1cc(Cl)cc(Cl)c1)C2=O (centres undefined) [Procymidone] | – | – | – | 157.1 Å² | – |
| CCCN(CCC)c1c([N+](=O)[O-])cc(C(F)(F)F)c(N)c1[N+](=O)[O-] [Prodiamine] | – | – | – | 171.1 Å² | – |
| CCCSP(=O)(OCC)Oc1ccc(Br)cc1Cl (centres undefined) [Profenofos] | – | 169.5 Å² | 184.3 Å² | – | – |
| Nc1ccc2cc3ccc(N)cc3nc2c1 [Proflavin hydrochloride] | 143.4 Å² | 143.9 Å² | – | – | – |
| CCCN(CC1CC1)c1c([N+](=O)[O-])cc(C(F)(F)F)cc1[N+](=O)[O-] [Profluralin] | – | – | – | 172.2 Å² | – |
| CNC(=O)Oc1cc(C)cc(C(C)C)c1 [Promecarb] | – | – | 157.5 Å² | – | – |
| CC(CN1c2ccccc2Sc2ccccc21)N(C)C (centres undefined) [Promethazine hydrochloride] | 163.3 Å² | 163.7 Å² | 172.5 Å² | – | – |
| COc1nc(NC(C)C)nc(NC(C)C)n1 [Prometon] | 156.1 Å² | 156.5 Å² | 173.7 Å² | – | – |
| CSc1nc(NC(C)C)nc(NC(C)C)n1 [Prometryn] | 160.9 Å² | 161 Å² | – | – | – |
| CC(C)N(C(=O)CCl)c1ccccc1 [Propachlor] | 143.4 Å² | 143.2 Å² | 161.5 Å² | – | – |
| CCCOC(=O)NCCCN(C)C [Propamocarb hydrochloride] | 142.7 Å² | 143.4 Å² | – | – | – |
| CCCOC(=O)NCCCN(C)C [Propamocarb] | 142.9 Å² | 143.3 Å² | – | – | – |
| CCCCC(CC)C(=O)OC(C)C (centres undefined) [Propan-2-yl 2-ethylhexanoate] | – | – | – | 151.3 Å² | – |
| N#CCC#N [Propanedinitrile] | – | – | – | 103.8 Å² | – |
| CC(C)[N+](C)(CCOC(=O)C1c2ccccc2Oc2ccccc21)C(C)C [Propantheline bromide] | – | – | – | – | collision cross section in nitrogen (ion source: ESI, ion mode: Positive, ion type: [M]+ (permanent cation)): 184.1 Å² |
| C#CCOS(=O)OC1CCCCC1Oc1ccc(C(C)(C)C)cc1 (centres undefined) [Propargite] | – | – | 186.9 Å² | – | – |
| CCNP(=S)(OC)O/C(C)=C/C(=O)OC(C)C (centres undefined) [Propetamphos] | – | – | 170.5 Å² | 168.1 Å² | – |
| CCCC1COC(Cn2cncn2)(c2ccc(Cl)cc2Cl)O1 (centres undefined) [Propiconazole] | 180.9 Å² | 179.8 Å² | – | – | – |
| CC(C)c1cccc(C(C)C)c1O [Propofol] | – | – | – | 143.5 Å² | – |
| CCCOc1nn(C(=O)NS(=O)(=O)c2ccccc2C(=O)OC)c(=O)n1C [Propoxycarbazone-sodium] | – | – | – | 193.2 Å² | – |
